Measurements published in patent US20210154190A1, “SHP2 INHIBITOR COMPOSITIONS AND METHODS FOR TREATING CANCER” (Revolution Medicines, Inc., priority 2018, published 2021).

Legend:
SHP2 F285S = biological target: T1, SHP2 F285S (Homo sapiens, UniProt Q06124, F285S); experiment: EGF-induced pERK AlphaLISA in T-REx-293-SHP2 cells, F285S; type: cell-based; conditions: Variant F285S
T1 construct: expressed in transfected cells; host or cells: Flp-In T-REx-293 (T-REx-293-SHP2)
Experimental: (§1) An experimental system was creating to test the activity of SHP2 mutants on an isogenic background (FIG. 6). The Flp-In T-REx-293 cell line was obtained from Gibco® and cultivated in high glucose DMEM™ containing 2 mM L-glutamine (Hyclone®), supplemented with 10% FBS (Hyclone®), 1% penicillin/streptomycin (Gibco®), 100 μg/mL Zeocin™ (Gibco®), and 15 μg/mL blasticidin (Gibco®) in a humidified cell culture incubator at 37° C., 5% CO2.
(§2) Wild type or mutant SHP2 variants were synthesized and subcloned into the pcDNA5/FRT/TO vector (ThermoFisher). Plasmids were co-transfected with the pOG44 Flp recombinase expression plasmid (ThermoFisher®) into Flp-In T-REx-293 cells using X-tremegene 9 DNA transfection reagent (Sigma®), according to the manufacturer's instructions. […]
(§3) For the final 5 minutes of drug treatment, cells were stimulated with 50 ng/mL Epidermal Growth Factor (Sigma®). […] Samples were read using an EnVision Multilabel Plate Reader (Perkin Elmer®) using standard AlphaLISA settings. Assay data was plotted and EC50 values were determined using four-parameter concentration-response model in GraphPad Prism 7. […]

SHP2 D61G = biological target: T2, SHP2 D61G (Homo sapiens, UniProt Q06124, D61G); experiment: EGF-induced pERK AlphaLISA in T-REx-293-SHP2 cells, D61G; type: cell-based; conditions: Variant D61G
T2 construct: expressed in transfected cells; host or cells: Flp-In T-REx-293 (T-REx-293-SHP2)
Experimental: as §1, §2, §3

SHP2 E69K = biological target: T3, SHP2 E69K (Homo sapiens, UniProt Q06124, E69K); experiment: EGF-induced pERK AlphaLISA in T-REx-293-SHP2 cells, E69K; type: cell-based; conditions: Variant E69K
T3 construct: expressed in transfected cells; host or cells: Flp-In T-REx-293 (T-REx-293-SHP2)
Experimental: as §1, §2, §3

SHP2 WT = biological target: T4, SHP2 WT (Homo sapiens, UniProt Q06124); experiment: EGF-induced pERK AlphaLISA in T-REx-293-SHP2 cells, WT; type: cell-based; conditions: Variant WT
T4 construct: expressed in transfected cells; host or cells: Flp-In T-REx-293 (T-REx-293-SHP2)
Experimental: as §1, §2, §3

SHP2 P491S = biological target: T5, SHP2 P491S (Homo sapiens, UniProt Q06124, P491S); experiment: EGF-induced pERK AlphaLISA in T-REx-293-SHP2 cells, P491S; type: cell-based; conditions: Variant P491S
T5 construct: expressed in transfected cells; host or cells: Flp-In T-REx-293 (T-REx-293-SHP2)
Experimental: as §1, §2, §3

SHP2 S189A = biological target: T6, SHP2 S189A (Homo sapiens, UniProt Q06124, S189A); experiment: EGF-induced pERK AlphaLISA in T-REx-293-SHP2 cells, S189A; type: cell-based; conditions: Variant S189A
T6 construct: expressed in transfected cells; host or cells: Flp-In T-REx-293 (T-REx-293-SHP2)
Experimental: as §1, §2, §3

SHP2 Q506P = biological target: T7, SHP2 Q506P (Homo sapiens, UniProt Q06124, Q506P); experiment: EGF-induced pERK AlphaLISA in T-REx-293-SHP2 cells, Q506P; type: cell-based; conditions: Variant Q506P
T7 construct: expressed in transfected cells; host or cells: Flp-In T-REx-293 (T-REx-293-SHP2)
Experimental: as §1, §2, §3

SHP2 L262R = biological target: T8, SHP2 L262R (Homo sapiens, UniProt Q06124, L262R); experiment: EGF-induced pERK AlphaLISA in T-REx-293-SHP2 cells, L262R; type: cell-based; conditions: Variant L262R
T8 construct: expressed in transfected cells; host or cells: Flp-In T-REx-293 (T-REx-293-SHP2)
Experimental: as §1, §2, §3

SHP2 T73I = biological target: T9, SHP2 T73I (Homo sapiens, UniProt Q06124, T73I); experiment: EGF-induced pERK AlphaLISA in T-REx-293-SHP2 cells, T73I; type: cell-based; conditions: Variant T73I
T9 construct: expressed in transfected cells; host or cells: Flp-In T-REx-293 (T-REx-293-SHP2)
Experimental: as §1, §2, §3

SHP2 A72V = biological target: T10, SHP2 A72V (Homo sapiens, UniProt Q06124, A72V); experiment: EGF-induced pERK AlphaLISA in T-REx-293-SHP2 cells, A72V; type: cell-based; conditions: Variant A72V
T10 construct: expressed in transfected cells; host or cells: Flp-In T-REx-293 (T-REx-293-SHP2)
Experimental: as §1, §2, §3

SHP2 S502P = biological target: T11, SHP2 S502P (Homo sapiens, UniProt Q06124, S502P); experiment: EGF-induced pERK AlphaLISA in T-REx-293-SHP2 cells, S502P; type: cell-based; conditions: Variant S502P
T11 construct: expressed in transfected cells; host or cells: Flp-In T-REx-293 (T-REx-293-SHP2)
Experimental: as §1, §2, §3

SHP2 G503V = biological target: T12, SHP2 G503V (Homo sapiens, UniProt Q06124, G503V); experiment: EGF-induced pERK AlphaLISA in T-REx-293-SHP2 cells, G503V; type: cell-based; conditions: Variant G503V
T12 construct: expressed in transfected cells; host or cells: Flp-In T-REx-293 (T-REx-293-SHP2)
Experimental: as §1, §2, §3

SHP2 T253M/Q257L [1] = biological target: T13, SHP2 T253M/Q257L (Homo sapiens, UniProt Q06124, Q257L/T253M); experiment: EGF-induced pERK AlphaLISA in T-REx-293-SHP2 cells, T253M/Q257L; type: cell-based; parameters: expressed in transfected cells; host or cells: Flp-In T-REx-293 (T-REx-293-SHP2)
T13 sequence (Q06124 1-593 T253M/Q257L): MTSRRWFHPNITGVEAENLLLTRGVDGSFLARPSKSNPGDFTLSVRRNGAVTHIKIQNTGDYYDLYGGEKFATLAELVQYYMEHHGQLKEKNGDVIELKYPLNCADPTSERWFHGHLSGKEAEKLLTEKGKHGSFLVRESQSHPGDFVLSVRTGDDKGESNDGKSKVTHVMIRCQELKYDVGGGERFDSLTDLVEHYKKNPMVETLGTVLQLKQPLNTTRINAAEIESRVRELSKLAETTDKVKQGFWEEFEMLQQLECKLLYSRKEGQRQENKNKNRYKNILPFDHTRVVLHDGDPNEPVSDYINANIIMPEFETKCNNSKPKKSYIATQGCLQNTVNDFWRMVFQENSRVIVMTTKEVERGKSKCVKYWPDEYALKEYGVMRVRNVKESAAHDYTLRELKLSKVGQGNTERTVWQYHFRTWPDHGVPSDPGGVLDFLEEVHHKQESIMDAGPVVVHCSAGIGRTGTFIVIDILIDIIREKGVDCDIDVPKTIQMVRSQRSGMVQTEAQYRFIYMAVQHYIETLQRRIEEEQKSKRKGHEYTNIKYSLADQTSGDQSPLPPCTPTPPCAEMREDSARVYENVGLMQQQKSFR
Experimental: as §1, §2, §3

SHP2 T253M/Q257L [2] = biological target: T13, SHP2 T253M/Q257L; experiment: SHP2 allosteric inhibition assay (DiFMUP), T253M/Q257L; type: biochemical; parameters: expressed in transfected cells; conditions: Variant T253M/Q257L

Cc1nc(N2CCC3(CC2)CO[C@@H](C)[C@H]3N)c(CO)nc1-c1cccc(Cl)c1Cl [Compound B]
insensitive to inhibition: inhibition of engineered double mutant in the Compound B binding site (SHP2 T253M/Q257L [1]; T253M/Q257L, cellular pERK)
no (Sensitive if IC50 < 2000 nM): Cellular sensitivity (SHP2 P491S) | Cellular sensitivity (SHP2 A72V) | Cellular sensitivity (SHP2 G503V) | Cellular sensitivity (SHP2 T253M/Q257L [1]; Variant T253M/Q257L) | Biochemical sensitivity (SHP2 T253M/Q257L [2])
yes (Sensitive if IC50 < 2000 nM): Cellular sensitivity (SHP2 F285S) | Cellular sensitivity (SHP2 D61G) | Cellular sensitivity (SHP2 E69K) | Cellular sensitivity (SHP2 WT) | Cellular sensitivity (SHP2 S189A) | Cellular sensitivity (SHP2 Q506P) | Cellular sensitivity (SHP2 L262R) | Cellular sensitivity (SHP2 T73I) | Cellular sensitivity (SHP2 S502P)
